# Laboratory results published in US11458123B2 (Arvinas, Inc., priority 2016, dated 2022).
# System: tau protein
# Assay: Tau protein in vitro degradation assay (Western blot, Tau-13 antibody)
# Type: cell-based, human
# Conditions: SK-N-SH cells; 72 hours of incubation; tested at 300 nM, 100 nM, 33 nM and 11 nM; Western blot, Tau-13 antibody
# Method in brief: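 SK-N-SH cells, seeded ≥18 h beforehand, were incubated 72 h with tau PROTACs at 1000, 300 and 100 nM or at 300, 100, 33 and 11 nM. Lysates in protease-inhibitor buffer were resolved by SDS-PAGE; tau quantified by Western blot with Tau-13 antibody recognising all human tau forms.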
SMILES,Degradation activity* (highest amount of degradation observed at any dosage; tau protein remaining),Degradation activity (tau protein remaining; highest amount of degradation observed at any dosage)
"Cn1c2ccncc2c2ccc(-c3ccc(O[C@H]4C[C@H](OCCCOCCCN5CC(Oc6ccc7c(c6)C(=O)N(C6CCC(=O)NC6=O)C7=O)C5)C4)nc3)cc21 (some centres unmarked) [Compound 99, 2-(2,6-dioxopiperidin-3-yl)-5-((1-(3-(3-((1r,3r)-3-((5-(5-methyl-5H-pyrido[4,3-b]indol-7-yl)pyridin-2-yl)oxy)cyclobutoxy)propoxy)propyl)azetidin-3-yl)oxy)isoindoline-1,3-dione]",A (≤50% tau protein remaining after 72 hours of incubation with the test compound),
"O=C1CCC(N2C(=O)c3ccc(OCCCCCC(=O)N4CCC(O[C@H]5C[C@H](Oc6ccc(-c7ccc8c(c7)[nH]c7ccncc78)cn6)C5)CC4)cc3C2=O)C(=O)N1 (some centres unmarked) [Compound 164, 5-(6-(4-((1r,3r)-3-(5-(5H-pyrido[4,3-b]indol-7-yl)pyridin-2-yloxy)cyclobutoxy)piperidin-1-yl)-6-oxohexyloxy)-2-(2,6-dioxopiperidin-3-yl)isoindoline-1,3-dione]",C (>80% tau protein remaining after 72 hours of incubation with the test compound),
"O=C1CCC(N2C(=O)c3ccc(OCCCCCN4CCN(CCOCCCc5ccc(-c6ccc7c(c6)[nH]c6ccncc67)cn5)CC4)cc3C2=O)C(=O)N1 (centres unmarked) [Compound 52, 5-((5-(4-(2-(3-(5-(5H-pyrido[4,3-b]indol-7-yl)pyridin-2-yl)propoxy)ethyl)piperazin-1-yl)pentyl)oxy)-2-(2,6-dioxopiperidin-3-yl)isoindoline-1,3-dione]",C (>80% tau protein remaining after 72 hours of incubation with the test compound),
"Cn1c2ccncc2c2ccc(-c3ccc(N4CC(OCCOCCOCCOCCOc5ccc6c(c5)C(=O)N(C5CCC(=O)NC5=O)C6=O)C4)nc3)cc21 (centres unmarked) [Compound 208, 2-(2,6-dioxopiperidin-3-yl)-5-(2-(2-(2-(2-((1-(5-(5-methyl-5H-pyrido[4,3-b]indol-7-yl)pyridin-2-yl)azetidin-3-yl)oxy)ethoxy)ethoxy)ethoxy)ethoxy)isoindoline-1,3-dione]",,A (≤50% tau protein remaining after 72 hours of incubation with the test compound)
"Cn1c2ccncc2c2ccc(-c3ccc(OCCCCCOCCCCCOC4CN(c5ccc6c(c5)C(=O)N(C5CCC(=O)NC5=O)C6=O)C4)nc3)cc21 (centres unmarked) [Compound 79, 2-(2,6-dioxopiperidin-3-yl)-5-(3-((5-((5-((5-(5-methyl-5H-pyrido[4,3-b]indol-7-yl)pyridin-2-yl)oxy)pentyl)oxy)pentyl)oxy)azetidin-1-yl)isoindoline-1,3-dione]",A (≤50% tau protein remaining after 72 hours of incubation with the test compound),
"Cn1c2ccncc2c2ccc(-c3cnc(O[C@H]4C[C@H](Oc5ccc(C#CCOC6CN(c7ccc8c(c7)C(=O)N(C7CCC(=O)NC7=O)C8=O)C6)nc5)C4)c(C(F)(F)F)c3)cc21 (some centres unmarked) [Compound 118, 2-(2,6-dioxopiperidin-3-yl)-5-(3-((3-(5-((1r,3r)-3-((5-(5-methyl-5H-pyrido[4,3-b]indol-7-yl)-3-(trifluoromethyl)pyridin-2-yl)oxy)cyclobutoxy)pyridin-2-yl)prop-2-yn-1-yl)oxy)azetidin-1-yl)isoindoline-1,3-dione]",C (>80% tau protein remaining after 72 hours of incubation with the test compound),
"Cn1c2ccncc2c2ccc(-c3ccc(O[C@H]4C[C@H](Oc5ccc(CCCCCCOc6ccc7c(c6)C(=O)N(C6CCC(=O)NC6=O)C7=O)nc5)C4)nc3)cc21 (some centres unmarked) [Compound 98, 2-(2,6-dioxopiperidin-3-yl)-5-((6-(5-((1r,3r)-3-((5-(5-methyl-5H-pyrido[4,3-b]indol-7-yl)pyridin-2-yl)oxy)cyclobutoxy)pyridin-2-yl)hexyl)oxy)isoindoline-1,3-dione]",B (≤80% and >50% tau protein remaining after 72 hours of incubation with the test compound),
"Cn1c2ccncc2c2ccc(-c3ccc(O[C@H]4C[C@H](Oc5ccc(CCCCCOc6ccc7c(c6)C(=O)N(C6CCC(=O)NC6=O)C7=O)nc5)C4)nc3)cc21 (some centres unmarked) [Compound 95, 2-(2,6-dioxopiperidin-3-yl)-5-((5-(5-((1r,3r)-3-((5-(5-methyl-5H-pyrido[4,3-b]indol-7-yl)pyridin-2-yl)oxy)cyclobutoxy)pyridin-2-yl)pentyl)oxy)isoindoline-1,3-dione]",C (>80% tau protein remaining after 72 hours of incubation with the test compound),
"Cn1c2ccncc2c2ccc(-c3ccc(O[C@H]4C[C@H](OC5CCN(CCCCCOc6ccc7c(c6)C(=O)N(C6CCC(=O)NC6=O)C7=O)CC5)C4)nc3)cc21 (some centres unmarked) [Compound 82, 2-(2,6-dioxopiperidin-3-yl)-5-((5-(4-((1r,3r)-3-((5-(5-methyl-5H-pyrido[4,3-b]indol-7-yl)pyridin-2-yl)oxy)cyclobutoxy)piperidin-1-yl)pentyl)oxy)isoindoline-1,3-dione]",C (>80% tau protein remaining after 72 hours of incubation with the test compound),
"Cn1c2ccncc2c2ccc(-c3cnc(OCCOCCOCCOCCOCCOc4ccc5c(c4)C(=O)N(C4CCC(=O)NC4=O)C5=O)c(C#N)c3)cc21 (centres unmarked) [Compound 203, 2-((14-((2-(2,6-dioxopiperidin-3-yl)-1,3-dioxoisoindolin-5-yl)oxy)-3,6,9,12-tetraoxatetradecyl)oxy)-5-(5-methyl-5H-pyrido[4,3-b]indol-7-yl)nicotinonitrile]",,A (≤50% tau protein remaining after 72 hours of incubation with the test compound)
"Cn1c2ccncc2c2ccc(-c3ccc(O[C@H]4C[C@H](Oc5ccc(C#CCCCOc6ccc7c(c6)C(=O)N(C6CCC(=O)NC6=O)C7=O)nc5)C4)nc3)cc21 (some centres unmarked) [Compound 94, 2-(2,6-dioxopiperidin-3-yl)-5-((5-(5-((1r,3r)-3-((5-(5-methyl-5H-pyrido[4,3-b]indol-7-yl)pyridin-2-yl)oxy)cyclobutoxy)pyridin-2-yl)pent-4-yn-1-yl)oxy)isoindoline-1,3-dione]",C (>80% tau protein remaining after 72 hours of incubation with the test compound),
"Cn1c2ccncc2c2ccc(-c3ccc(OCCCOc4ccc(CCCOC5CN(c6ccc7c(c6)C(=O)N(C6CCC(=O)NC6=O)C7=O)C5)nc4)nc3)cc21 (centres unmarked) [Compound 168, 2-(2,6-dioxopiperidin-3-yl)-5-(3-(3-(5-(3-((5-(5-methyl-5H-pyrido[4,3-b]indol-7-yl)pyridin-2-yl)oxy)propoxy)pyridin-2-yl)propoxy)azetidin-1-yl)isoindoline-1,3-dione]",B (≤80% and >50% tau protein remaining after 72 hours of incubation with the test compound),

# Same assay, conditions: SK-N-SH cells; 72 hours of incubation; tested at 1000 nM, 300 nM and 100 nM
row,SMILES,"Activity* (highest amount of degradation observed at any dosage, as tau protein remaining)"
1,"Cc1ncoc1-c1ccc(CNC(=O)[C@@H]2C[C@@H](O)CN2C(=O)[C@@H](NC(=O)COCCOCCOCCN2CCN(c3ccn4c(n3)nc3ccccc34)CC2)C(C)(C)C)cc1 [Compound 11, (2S,4R)-1-((S)-14-(4-(benzo[4,5]imidazo[1,2-a]pyrimidin-2-yl)piperazin-1-yl)-2-(tert-butyl)-4-oxo-6,9,12-trioxa-3-azatetradecanoyl)-4-hydroxy-N-(4-(4-methyloxazol-5-yl)benzyl)pyrrolidine-2-carboxamide]",C (>80% tau protein remaining after 72 hours of incubation with the test compound)
2,"CN(C)c1ccc(-c2ccc3cc(OCC(O)COCCOCCOCCOCCNc4cccc5c4C(=O)N(C4CCC(=O)NC4=O)C5=O)ccc3n2)cc1 (centres unmarked) [Compound 45, 4-(15-(2-(4-(dimethylamino)phenyl)quinolin-6-yloxy)-14-hydroxy-3,6,9,12-tetraoxapentadecylamino)-2-(2,6-dioxopiperidin-3-yl)isoindoline-1,3-dione]",C (>80% tau protein remaining after 72 hours of incubation with the test compound)
3,"O=C1CCC(N2C(=O)c3cccc(NCCOCCOCCOCCOCC(=O)N4CCN(c5ccn6c(n5)nc5ccccc56)CC4)c3C2=O)C(=O)N1 (centres unmarked) [Compound 42, 4-((14-(4-(benzo[4,5]imidazo[1,2-a]pyrimidin-2-yl)piperazin-1-yl)-14-oxo-3,6,9,12-tetraoxatetradecyl)amino)-2-(2,6-dioxopiperidin-3-yl)isoindoline-1,3-dione]",C (>80% tau protein remaining after 72 hours of incubation with the test compound)
4,"O=C1CCC(N2C(=O)c3cccc(NCCOCCOCCOCC(=O)N4CCN(c5ccn6c(n5)nc5ccccc56)CC4)c3C2=O)C(=O)N1 (centres unmarked) [Compound 41, 4-((2-(2-(2-(2-(4-(benzo[4,5]imidazo[1,2-a]pyrimidin-2-yl)piperazin-1-yl)-2-oxoethoxy)ethoxy)ethoxy)ethyl)amino)-2-(2,6-dioxopiperidin-3-yl)isoindoline-1,3-dione]",C (>80% tau protein remaining after 72 hours of incubation with the test compound)
5,"Cc1ncsc1-c1ccc([C@H](C)NC(=O)[C@@H]2C[C@@H](O)CN2C(=O)[C@@H](NC(=O)COCCCCCOc2ccc3nc(-c4ccc(N(C)C)cc4)ccc3c2)C(C)(C)C)cc1 [Compound 38, (2S,4R)-1-((S)-2-(2-(5-(2-(4-(dimethylamino)phenyl)quinolin-6-yloxy)pentyloxy)acetamido)-3,3-dimethylbutanoyl)-4-hydroxy-N—((S)-1-(4-(4-methylthiazol-5-yl)phenyl)ethyl)pyrrolidine-2-carboxamide]",C (>80% tau protein remaining after 72 hours of incubation with the test compound)
